Measured values as given in patent US12466781B2, “Thyromimetics” (Autobahn Therapeutics, Inc., priority 2019, dated 2025).
Like-named read-outs stand apart in the source and are kept apart here.

Tests used:
[1] = Tissue distribution studies (tissue concentrations by LC-MS/MS); assay type: in vivo, male C57Bl/6 mice; settings: for AUC(4-hr) Heart / AUC(4-hr) Liver: mice, targeted dose 0.100 mg/kg; for brain levels of parent acid Compound 15: PO dosing (0.1 mg/kg) of the amide prodrug, compared to dosing Compound 15 itself, FIG. 1
Procedure: For tissue concentration studies in male C57Bl/6 mice, test compounds are formulated as NMP/solutol/PBS solution, at a concentration of 0.05 mg/mL and dosed at 2 mL/kg with the targeted dose of 0.100 mg/kg via SC injection or oral dosing. […] The pharmacokinetic parameters are determined by non-compartmental methods using WinNonlin. Area under the drug curves (AUC) values are determined by trapezoidal approximation; tissue-to-tissue ratios are determined by comparing AUC values.

TRα = target: T1, TRα (Homo sapiens, UniProt P10827); test: Thyroid-hormone reporter-gene assay (TRα-Gal4 hybrid, luciferase, HEK293); assay type: cell-based
T1 construct: expressed in transfected cells; host or cells: HEK293
T1 sequence (P10827 163-410 isoform P10827-2 limits assumed): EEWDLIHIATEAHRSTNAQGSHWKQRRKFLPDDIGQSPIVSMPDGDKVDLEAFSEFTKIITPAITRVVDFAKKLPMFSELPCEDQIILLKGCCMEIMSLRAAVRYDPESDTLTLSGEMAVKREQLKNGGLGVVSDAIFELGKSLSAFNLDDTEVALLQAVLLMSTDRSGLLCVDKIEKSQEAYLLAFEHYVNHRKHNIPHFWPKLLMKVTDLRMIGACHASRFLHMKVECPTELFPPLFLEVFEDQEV

TRβ = target: T2, TRβ (Homo sapiens, UniProt P10828); test: Thyroid-hormone reporter-gene assay (TRβ-Gal4 hybrid, luciferase, HEK293); assay type: cell-based; settings: for T3-SI (selectivity index): calculated as EC50 (TRα)/EC50 (TRβ)
T2 construct: expressed in transfected cells; host or cells: HEK293
T2 sequence (P10828 217-461 limits assumed): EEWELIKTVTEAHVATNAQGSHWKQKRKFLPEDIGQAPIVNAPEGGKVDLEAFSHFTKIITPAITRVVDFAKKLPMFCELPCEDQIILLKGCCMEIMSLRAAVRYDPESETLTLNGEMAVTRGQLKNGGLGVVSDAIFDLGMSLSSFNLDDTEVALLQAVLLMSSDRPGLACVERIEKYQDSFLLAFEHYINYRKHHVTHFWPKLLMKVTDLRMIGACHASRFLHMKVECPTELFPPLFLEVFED

[2] = reporter cells, 24 hr incubation, Table 2, read-out: TRα (EC50)
[3] = reporter cells, 24 hr incubation, Table 2, read-out: TRβ (EC50)

Row | EC50 (TRα; [2]) [nM] | T3-SI (selectivity index) (TRβ; Table 2) | EC50 (TRβ; [3]) [nM] | SMILES | further results
1 |  |  |  | CC(C)c1c(O)ccc(Cc2c(Cl)cc(OCC(=O)O)cc2Cl)c1F [Compound 15, 2-(3,5-dichloro-4-(2-fluoro-4-hydroxy-3-isopropylbenzyl)phenoxy)acetic acid] | AUC(4-hr) Heart [1]: 25.8 ng-hr/g of tissue; AUC(4-hr) Liver [1]: 580 ng-hr/g of tissue
2 |  |  |  | CNC(=O)COc1cc(Cl)c(Cc2ccc(O)c(C(C)C)c2F)c(Cl)c1 [Compound 16, 2-(3,5-dichloro-4-(2-fluoro-4-hydroxy-3-isopropylbenzyl)phenoxy)-N-methylacetamide] | brain levels of parent acid Compound 15 [1]: dramatic increase in brain concentration of the parent acid
3 |  |  |  | CC(C)c1c(O)ccc(Cc2c(Cl)cc(OCC(=O)N(C)C)cc2Cl)c1F [Compound 17, 2-(3,5-dichloro-4-(2-fluoro-4-hydroxy-3-isopropylbenzyl)phenoxy)-N,N-dimethylacetamide] | brain levels of parent acid Compound 15 [1]: increase in the brain concentration of the parent acid
4 |  |  |  | CC(C)c1cc(Cc2c(Cl)cc(OCC(=O)O)c(F)c2Cl)ccc1O [Compound 62, 2-(3,5-dichloro-2-fluoro-4-(4-hydroxy-3-isopropylbenzyl)phenoxy)acetic acid] | AUC(4-hr) Heart [1]: 24.4 ng-hr/g of tissue; AUC(4-hr) Liver [1]: 550 ng-hr/g of tissue
5 | > 1000 | +++ (T3-SI>30×) | 100 to 1000 | CCOC(=O)COc1cc(F)c(Cc2ccc(O)c(C(C)C)c2)c(Cl)c1F [Compound 147, ethyl 2-(3-chloro-2,5-difluoro-4-(4-hydroxy-3-isopropylbenzyl)phenoxy)acetate] | 
6 | 100 to 1000 | ++ (3×<T3-SI≤30×) | 100 to 1000 | CCOC(=O)COc1cc(Cl)c(Cc2ccc(O)c(C(C)C)c2)c(Cl)c1OC [Compound 165, ethyl 2-(3,5-dichloro-4-(4-hydroxy-3-isopropylbenzyl)-2-methoxyphenoxy)acetate] | 
7 | 10 to 100 | ++ (3×<T3-SI≤30×) | 10 to 100 | CNC(=O)COc1cc(Cl)c(Cc2ccc(O)c(C(C)C)c2)c(Cl)c1OC [Compound 167, 2-(3,5-dichloro-4-(4-hydroxy-3-isopropylbenzyl)-2-methoxyphenoxy)-N-methylacetamide] | 
8 |  |  |  | CC(C)c1cc(Cc2c(Cl)cc(OCC(=O)O)cc2Cl)ccc1O [JD-21, reference compound] | EC50 (TRα; Table 3, read-out: EC50-TRα): 190 nM; EC50 (TRβ; Table 3, read-out: EC50-TRβ): 79 nM; T3-SI (TRβ; selectivity index, Table 3): 14
